pIC50: −log10 of the molar value. “Also recorded” adds a separate entry of the source. Read-outs that look alike come from different tables or passages of the source.
Tests used:
[1] = test system: KASUMI; assay: Cell viability, antiproliferation, apoptosis, differentiation in KASUMI cells; type: cell-based
[2] = test system: NOMO1; assay: Cell viability, antiproliferation, apoptosis, differentiation in NOMO1 cells; type: cell-based
[3] = test system: MOLM13 cells; assay: Apoptosis markers in MOLM13 cells; type: cell-based, human
[4] = test system: MOLM13 cells; assay: Differentiation in MOLM13 cells; type: cell-based, human
[5] = test system: over 800 cancer cell lines; assay: PRISM screen against over 800 cancer cell lines; type: cell-based; details: MOLM13 cell line
Source text: DEG-7 and DEG-35 were submitted to the Broad Institute's PRISM (Profiling Relative Inhibition Simultaneously in Mixtures) screen to be evaluated against over 800 cancer cell lines. The initial screen identified cancer cell lines that were responsive to DEG-7 and DEG-35 treatment. […] Several diffuse large B-cell lymphoma (DLBCL), acute myeloid leukemia (AML), and T-cell acute lymphoblastic leukemia (T-ALL) cell lines responded to DEG-35 in a dose-dependent manner. Of the top ten cell lines that responded to DEG-35 treatment, three were DLBCL cell lines, one was an AML cell line (MOLM13), and one was a T-ALL cell line.

[6] = biological target: T1, IKZF2 (Homo sapiens, UniProt Q9UKS7); assay: Western blot, IKZF2 degradation in MOLM13 cells; type: cell-based; set-up: endogenous in cells; host or cells: MOLM13
Experimental: (§1) To determine the selectivity of DEG-7 and DEG-35, blotting was done for other known IMiD neo-substrates (FIG. 1A). DEG-35 degraded casein kinase 1α (CK1α), a known substrate of lenalidomide, as well as the translation termination factor GSPT1, a substrate of the IMiD CC-885, at 25 μM concentrations. To investigate whether DEG-35 could degrade IKZF2 at lower concentrations, MOLM13 cells were treated with a concentration gradient. At the lowest concentration tested (5 nM), IKZF2 and CK1a degraded, while GSPT1 levels were unperturbed.
Target sequence in this assay (Q9UKS7 whole entry): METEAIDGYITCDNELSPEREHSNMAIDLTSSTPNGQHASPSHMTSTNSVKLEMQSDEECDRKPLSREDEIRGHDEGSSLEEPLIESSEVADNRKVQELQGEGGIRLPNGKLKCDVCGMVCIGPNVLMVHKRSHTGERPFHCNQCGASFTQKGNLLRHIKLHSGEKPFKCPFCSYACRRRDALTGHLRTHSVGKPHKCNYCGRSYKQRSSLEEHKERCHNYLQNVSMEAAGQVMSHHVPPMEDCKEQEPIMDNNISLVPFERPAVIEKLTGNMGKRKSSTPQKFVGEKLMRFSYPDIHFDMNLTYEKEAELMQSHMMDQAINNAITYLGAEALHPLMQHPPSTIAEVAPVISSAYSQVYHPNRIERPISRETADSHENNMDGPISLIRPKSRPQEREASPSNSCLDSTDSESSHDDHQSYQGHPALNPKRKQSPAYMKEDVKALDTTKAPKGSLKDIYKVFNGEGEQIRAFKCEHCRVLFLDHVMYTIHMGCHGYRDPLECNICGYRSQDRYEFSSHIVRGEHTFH
Target sequence in this assay (Q96SW2 whole entry, further chain): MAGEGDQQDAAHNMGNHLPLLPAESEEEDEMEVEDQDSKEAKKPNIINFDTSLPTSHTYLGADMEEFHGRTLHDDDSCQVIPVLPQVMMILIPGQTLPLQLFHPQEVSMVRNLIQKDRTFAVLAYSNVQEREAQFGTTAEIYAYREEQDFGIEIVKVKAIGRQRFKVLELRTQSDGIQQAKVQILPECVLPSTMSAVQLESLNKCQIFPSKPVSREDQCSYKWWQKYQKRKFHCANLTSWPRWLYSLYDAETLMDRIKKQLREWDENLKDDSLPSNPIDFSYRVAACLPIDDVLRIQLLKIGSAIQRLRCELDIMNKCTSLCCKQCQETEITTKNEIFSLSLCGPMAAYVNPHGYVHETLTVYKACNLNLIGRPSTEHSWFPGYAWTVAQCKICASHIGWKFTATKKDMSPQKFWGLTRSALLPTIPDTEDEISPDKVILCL
Target sequence in this assay (Q16531 whole entry partner): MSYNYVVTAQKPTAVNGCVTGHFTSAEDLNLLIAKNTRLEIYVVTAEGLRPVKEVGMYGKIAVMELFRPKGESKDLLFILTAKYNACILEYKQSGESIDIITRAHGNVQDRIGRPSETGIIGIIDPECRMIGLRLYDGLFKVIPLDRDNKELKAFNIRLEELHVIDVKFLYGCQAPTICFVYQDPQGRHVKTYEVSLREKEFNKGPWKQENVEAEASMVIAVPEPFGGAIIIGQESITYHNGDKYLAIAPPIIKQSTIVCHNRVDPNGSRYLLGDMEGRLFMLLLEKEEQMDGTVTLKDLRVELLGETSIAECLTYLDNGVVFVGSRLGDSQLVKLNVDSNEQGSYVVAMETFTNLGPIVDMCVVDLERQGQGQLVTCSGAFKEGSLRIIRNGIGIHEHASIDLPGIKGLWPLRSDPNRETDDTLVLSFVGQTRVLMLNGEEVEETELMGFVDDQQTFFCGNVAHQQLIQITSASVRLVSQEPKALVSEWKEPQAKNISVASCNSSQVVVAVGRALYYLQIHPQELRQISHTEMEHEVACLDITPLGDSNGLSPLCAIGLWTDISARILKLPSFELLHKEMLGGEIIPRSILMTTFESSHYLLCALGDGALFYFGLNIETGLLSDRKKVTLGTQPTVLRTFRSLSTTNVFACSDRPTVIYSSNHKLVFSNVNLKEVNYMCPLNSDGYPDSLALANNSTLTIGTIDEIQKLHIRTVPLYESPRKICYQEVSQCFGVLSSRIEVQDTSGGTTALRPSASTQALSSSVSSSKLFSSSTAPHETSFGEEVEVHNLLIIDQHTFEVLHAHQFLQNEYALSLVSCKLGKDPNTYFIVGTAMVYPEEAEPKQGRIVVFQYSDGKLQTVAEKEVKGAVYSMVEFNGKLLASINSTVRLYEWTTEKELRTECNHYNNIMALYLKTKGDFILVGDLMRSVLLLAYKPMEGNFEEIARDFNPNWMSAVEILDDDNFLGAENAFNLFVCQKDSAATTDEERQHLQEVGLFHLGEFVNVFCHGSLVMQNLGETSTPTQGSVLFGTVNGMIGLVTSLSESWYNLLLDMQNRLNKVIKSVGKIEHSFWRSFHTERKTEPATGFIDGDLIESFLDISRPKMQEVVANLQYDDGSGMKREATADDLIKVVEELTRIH

[7] = test system: MOLM13 cells; assay: MTT cell viability assay in MOLM13 cells; type: cell-based, human
Experimental: The effect of DEG-7 and DEG-35 were evaluated on cell viability in MOLM13 cells.

[8] = biological target: T2, IKZF1 (Homo sapiens, UniProt Q13422); assay: Western blot, IKZF1 levels in MOLM13 cells; type: cell-based
T2 construct: endogenous in cells; host or cells: MOLM13
T2 sequence (Q96SW2 whole entry partner): as the sequence (Q96SW2 whole entry, further chain) above
T2 sequence (Q16531 whole entry partner): as the sequence (Q16531 whole entry partner) above
T2 sequence (Q13422 whole entry): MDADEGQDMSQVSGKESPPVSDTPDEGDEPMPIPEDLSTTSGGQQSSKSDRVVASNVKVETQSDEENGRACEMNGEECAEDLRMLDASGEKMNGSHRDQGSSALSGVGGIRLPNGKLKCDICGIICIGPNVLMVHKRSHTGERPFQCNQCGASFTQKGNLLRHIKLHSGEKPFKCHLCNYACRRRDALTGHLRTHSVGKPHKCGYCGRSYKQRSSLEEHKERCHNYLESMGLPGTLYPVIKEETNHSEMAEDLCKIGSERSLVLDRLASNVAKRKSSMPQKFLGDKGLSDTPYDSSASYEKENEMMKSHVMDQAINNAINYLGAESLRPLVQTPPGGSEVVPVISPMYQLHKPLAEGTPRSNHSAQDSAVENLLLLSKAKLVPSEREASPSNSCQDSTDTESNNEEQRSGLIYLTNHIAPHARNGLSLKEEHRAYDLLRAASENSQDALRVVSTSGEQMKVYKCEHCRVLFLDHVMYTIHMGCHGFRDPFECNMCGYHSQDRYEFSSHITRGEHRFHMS
Source text: DEG-37 is also a suitable lead compound for IKZF2 targeted degradation (FIG. 4).

[9] = biological target: GSPT1 (Homo sapiens, UniProt P15170+Q96SW2); assay: Western blot, GSPT1 levels in MOLM13 cells; type: cell-based; set-up: endogenous in cells; host or cells: MOLM13
Chain of GSPT1 (P15170 whole entry): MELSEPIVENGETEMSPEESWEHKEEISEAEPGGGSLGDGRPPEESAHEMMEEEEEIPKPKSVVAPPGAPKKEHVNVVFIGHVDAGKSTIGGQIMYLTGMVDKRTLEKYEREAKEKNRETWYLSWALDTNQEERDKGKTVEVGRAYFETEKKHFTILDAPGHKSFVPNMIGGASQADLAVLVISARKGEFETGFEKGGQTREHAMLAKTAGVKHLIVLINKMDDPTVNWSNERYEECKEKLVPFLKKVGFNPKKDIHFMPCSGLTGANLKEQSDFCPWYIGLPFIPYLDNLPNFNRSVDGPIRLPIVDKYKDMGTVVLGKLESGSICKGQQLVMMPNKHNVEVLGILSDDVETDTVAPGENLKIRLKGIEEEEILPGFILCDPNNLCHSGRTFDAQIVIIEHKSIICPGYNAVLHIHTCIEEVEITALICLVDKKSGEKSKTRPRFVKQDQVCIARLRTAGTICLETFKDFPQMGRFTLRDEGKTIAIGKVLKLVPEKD
Chain of GSPT1 (Q96SW2 whole entry): as the sequence (Q96SW2 whole entry, further chain) above
Chain of GSPT1 (Q16531 whole entry partner): as the sequence (Q16531 whole entry partner) above
Experimental: as §1

[10] = biological target: T1, IKZF2; details: background statement; cited from earlier work
Target sequence in this assay (Q9UKS7 whole entry): as the sequence (Q9UKS7 whole entry) above
Target sequence in this assay (Q96SW2 whole entry, further chain): as the sequence (Q96SW2 whole entry, further chain) above

In the case of `COc1ccc2cc(CNc3ccc4c(c3)CN(C3CCC(=O)NC3=O)C4=O)ccc2c1` (stereo not drawn) [DEG-7, 3-(5-(((6-methoxynaphthalen-2-yl)methyl)amino)-1-oxoisoindolin-2-yl)piperidine-2,6-dione], the “effect on cell viability, antiproliferation, apoptosis, or differentiation” value [1] was “no observed effect”, the “effect on cell viability, antiproliferation, apoptosis, or differentiation” value [2] was “no observed effect” and the “induction of apoptosis markers” value [3] was “induced apoptosis markers”. The induction of differentiation [4] was “induced differentiation; also recorded: more efficient at inducing differentiation than DEG-35”, the “sensitivity of MOLM13 in PRISM screen” value [5] was “sensitive” and the IKZF2 degradation ([6]; analog screening, concentration not given) was “robust IKZF2 degradation; also recorded: potent degraders of IKZF2”. The pIC50 ([7]; MOLM13 cells) was 5.35.
For `O=C1CCC(N2Cc3cc(NCc4ccc5oc6ccccc6c5c4)ccc3C2=O)C(=O)N1` (stereo not drawn) [DEG-37, 3-(5-((dibenzo[b,d]furan-2-ylmethyl)amino)-1-oxoisoindolin-2-yl)piperidine-2,6-dione], the “effect on IKZF1 levels” value [8] was “minimally effect”, the “effect on GSPT1 levels” value [9] was “minimally effect” and the IKZF2 degradation ([6]; 25 μM) was “selectively degrade IKZF2; also recorded: degrades IKZF2”. For the same compound, the “antiproliferative activity (in words)” value ([7]; MOLM13 / AML cells) was “milder antiproliferative effects; also recorded: possesses antiproliferative effects”.
In the case of `Nc1cccc2c1CN(C1CCC(=O)NC1=O)C2=O` (stereo not drawn) [lenalidomide], the IKZF2 degradation [10] is listed as “not degraders of IKZF2”.
